Test results: ChEMBL document CHEMBL4308841, “Synthesis, in vitro antiproliferative activity, and kinase inhibitory effects of pyrazole-containing diarylureas and diarylamides” (Eur J Med Chem, 2018)

Experiments:
BT-549 = test: Growth inhibition of human BT549 cells assessed as cell growth at 10 uM incubated for 48 hrs by sulforhodamine B assay relative to control; assay type: functional; details: BT-549, 48 h, read-out: Activity
Malme-3M = test: Growth inhibition of human MALME-3M cells assessed as cell growth at 10 uM incubated for 48 hrs by sulforhodamine B assay relative to control; assay type: functional; details: read-out: Activity
COLO 205 [1] = test: Growth inhibition of human COLO205 cells assessed as cell growth at 10 uM incubated for 48 hrs by sulforhodamine B assay relative to control; assay type: functional; details: COLO 205, 48 h, read-out: Activity
MCF7 = test: Growth inhibition of human MCF7 cells assessed as cell growth at 0.1 uM incubated for 48 hrs by sulforhodamine B assay relative to control; assay type: functional; details: MCF7, 48 h, read-out: Activity
OVCAR-5 = test: Growth inhibition of human OVCAR5 cells incubated for 48 hrs by sulforhodamine B assay; assay type: functional, cell-based; details: OVCAR-5, 48 h
M14 = test: Growth inhibition of human M14 cells assessed as cell growth at 10 uM incubated for 48 hrs by sulforhodamine B assay relative to control; assay type: functional; details: M14, 48 h, read-out: Activity
HCT-116 = test: Growth inhibition of human HCT116 cells assessed as cell growth at 10 uM incubated for 48 hrs by sulforhodamine B assay relative to control; assay type: functional; details: HCT-116, 48 h, read-out: Activity
NCI-H322M = test: Growth inhibition of human NCI-H322M cells assessed as cell growth at 10 uM incubated for 48 hrs by sulforhodamine B assay relative to control; assay type: functional; details: read-out: Activity
SF-539 [2] = test: Growth inhibition of human SF539 cells assessed as cell growth at 10 uM incubated for 48 hrs by sulforhodamine B assay relative to control; assay type: functional; details: SF-539, 48 h, read-out: Activity
CCRF-CEM = test: Growth inhibition of human CCRF-CEM cells assessed as cell growth at 10 uM incubated for 48 hrs by sulforhodamine B assay relative to control; assay type: functional; details: read-out: Activity
UACC-257 = test: Growth inhibition of human UACC257 cells assessed as cell growth at 0.1 uM incubated for 48 hrs by sulforhodamine B assay relative to control; assay type: functional; details: UACC-257, 48 h, read-out: Activity
LOX IMVI = test: Growth inhibition of human LOXIMVI cells assessed as cell growth at 10 uM incubated for 48 hrs by sulforhodamine B assay relative to control; assay type: functional; details: read-out: Activity
NCI-H23 = test: Growth inhibition of human NCI-H23 cells assessed as cell growth at 10 uM incubated for 48 hrs by sulforhodamine B assay relative to control; assay type: functional; details: NCI-H23, 48 h, read-out: Activity
MDA-MB-231 [3] = test: Growth inhibition of human MDA-MB-231 cells assessed as cell growth at 10 uM incubated for 48 hrs by sulforhodamine B assay relative to control; assay type: functional; details: MDA-MB-231, 48 h, read-out: Activity
MDA-MB-468 = test: Growth inhibition of human MDA-MB-468 cells assessed as cell growth at 10 uM incubated for 48 hrs by sulforhodamine B assay relative to control; assay type: functional; details: MDA-MB-468, 48 h, read-out: Activity
OVCAR-3 = test: Growth inhibition of human OVCAR3 cells assessed as cell growth at 0.1 uM incubated for 48 hrs by sulforhodamine B assay relative to control; assay type: functional; details: OVCAR-3, 48 h, read-out: Activity
SK-MEL-5 = test: Growth inhibition of human SK-MEL-5 cells assessed as cell growth at 10 uM incubated for 48 hrs by sulforhodamine B assay relative to control; assay type: functional; details: SK-MEL-5, 48 h, read-out: Activity
HCT-15 = test: Growth inhibition of human HCT15 cells assessed as cell growth at 10 uM incubated for 48 hrs by sulforhodamine B assay relative to control; assay type: functional; details: HCT-15, 48 h, read-out: Activity
SF-539 [4] = test: Growth inhibition of human SF539 cells incubated for 48 hrs by sulforhodamine B assay; assay type: functional, cell-based; details: SF-539, 48 h
U-251 = test: Growth inhibition of human U251 cells assessed as cell growth at 1 uM incubated for 48 hrs by sulforhodamine B assay relative to control; assay type: functional; details: U-251, 48 h, read-out: Activity
KM12 = test: Growth inhibition of human KM12 cells assessed as cell growth at 10 uM incubated for 48 hrs by sulforhodamine B assay relative to control; assay type: functional; details: KM12, 48 h, read-out: Activity
UO-31 = test: Growth inhibition of human UO31 cells assessed as cell growth at 10 uM incubated for 48 hrs by sulforhodamine B assay relative to control; assay type: functional; details: UO-31, 48 h, read-out: Activity
MDA-MB-231 [5] = test: Growth inhibition of human MDA-MB-231 cells incubated for 48 hrs by sulforhodamine B assay; assay type: functional, cell-based; details: MDA-MB-231, 48 h
NCI-H460 = test: Growth inhibition of human NCI-H460 cells assessed as cell growth at 10 uM incubated for 48 hrs by sulforhodamine B assay relative to control; assay type: functional; details: NCI-H460, 48 h, read-out: Activity
PC-3 = test: Growth inhibition of human PC3 cells assessed as cell growth at 10 uM incubated for 48 hrs by sulforhodamine B assay relative to control; assay type: functional; details: PC-3, 48 h, read-out: Activity
COLO 205 [6] = test: Growth inhibition of human COLO205 cells assessed as cell growth at 0.1 uM incubated for 48 hrs by sulforhodamine B assay relative to control; assay type: functional; details: COLO 205, 48 h, read-out: Activity
K562 = test: Growth inhibition of human K562 cells assessed as cell growth at 10 uM incubated for 48 hrs by sulforhodamine B assay relative to control; assay type: functional; details: K562, 48 h, read-out: Activity
A498 = test: Growth inhibition of human A498 cells assessed as cell growth at 0.1 uM incubated for 48 hrs by sulforhodamine B assay relative to control; assay type: functional; details: A498, 48 h, read-out: Activity
SK-MEL-28 = test: Growth inhibition of human SK-MEL-28 cells assessed as cell growth at 10 uM incubated for 48 hrs by sulforhodamine B assay relative to control; assay type: functional; details: SK-MEL-28, 48 h, read-out: Activity
HOP-62 = test: Growth inhibition of human HOP62 cells assessed as cell growth at 10 uM incubated for 48 hrs by sulforhodamine B assay relative to control; assay type: functional; details: HOP-62, 48 h, read-out: Activity
COLO 205 [7] = test: Growth inhibition of human COLO205 cells assessed as cell growth at 0.01 uM incubated for 48 hrs by sulforhodamine B assay relative to control; assay type: functional; details: COLO 205, 48 h, read-out: Activity
[8] = read-out: LC50 (the source's name)
[9] = read-out: pLC50 (the source's name) (converted)

Work on `O=C(Nc1cccc(-n2cc(-c3ccncc3)c(-c3cc(O)cc(Cl)c3)n2)c1)c1ccc(N2CCOCC2)c(C(F)(F)F)c1` yielded a growth at 10 µM (BT-549) of 52.2%, a growth at 10 µM (Malme-3M) of -26.9% and a growth at 10 µM (COLO 205 [1]) of 80.5%. For the same molecule, the growth at 0.1 µM (MCF7) was 87%, the GI50 (OVCAR-5; read-out: GI50) was 14.8 µM and the CC50 (OVCAR-5; [8]) was > 100 µM. For the same molecule, the TGI (OVCAR-5; read-out: TGI) was 39.6 µM, the GI50 (OVCAR-5; read-out: pGI50 (converted)) was 14.8 µM and the CC50 (OVCAR-5; [9]) was > 100 µM. For the same molecule, the TGI (OVCAR-5; read-out: pTGI (converted)) was 39.8 µM, the growth at 10 µM (M14) was -20.7% and the growth at 10 µM (HCT-116) was 12.7%. It also gave a growth at 10 µM (NCI-H322M) of 43.5%, a growth at 10 µM (SF-539 [2]) of 2.4% and a growth at 10 µM (CCRF-CEM) of 13.1%. It also gave a growth at 0.1 µM (UACC-257) of 91%, a growth at 10 µM (LOX IMVI) of -48.7% and a growth at 10 µM (NCI-H23) of 15.4%. The growth at 10 µM (MDA-MB-231 [3]) was -48%, the growth at 10 µM (MDA-MB-468) was 26% and the growth at 0.1 µM (OVCAR-3) was 113%. The growth at 10 µM (SK-MEL-5) was 32.2%, the growth at 10 µM (HCT-15) was 6.25% and the GI50 (SF-539 [4]; read-out: GI50) was 1.44 µM. The CC50 (SF-539 [4]; [8]) was > 100 µM, the TGI (SF-539 [4]; read-out: TGI) was 44.7 µM and the GI50 (SF-539 [4]; read-out: pGI50 (converted)) was 1.45 µM. For the same molecule, the CC50 (SF-539 [4]; [9]) was > 100 µM, the TGI (SF-539 [4]; read-out: pTGI (converted)) was 4.47 µM and the growth at 1 µM (U-251) was 51%. The growth at 10 µM (KM12) was 9.89%, the growth at 10 µM (UO-31) was 3.98% and the GI50 (MDA-MB-231 [5]; read-out: GI50) was 0.327 µM. The CC50 (MDA-MB-231 [5]; [8]) was 27 µM, the TGI (MDA-MB-231 [5]; read-out: TGI) was 16.6 µM and the GI50 (MDA-MB-231 [5]; read-out: pGI50 (converted)) was 0.324 µM. For the same molecule, the CC50 (MDA-MB-231 [5]; [9]) was 26.9 µM, the TGI (MDA-MB-231 [5]; read-out: pTGI (converted)) was 1.66 µM and the growth at 10 µM (NCI-H460) was -26.1%. For the same molecule, the growth at 10 µM (PC-3) was 19.1%, the growth at 0.1 µM (COLO 205 [6]) was 104% and the growth at 10 µM (K562) was -15.5%. The growth at 0.1 µM (A498) was 85%, the growth at 10 µM (SK-MEL-28) was -52.4% and the growth at 10 µM (HOP-62) was -2.19%. It also gave a growth at 0.01 µM (COLO 205 [7]) of 106%.
With `COc1cc(Cl)cc(-c2nn(-c3cccc(NC(=O)c4cc(C(F)(F)F)cc(C(F)(F)F)c4)c3)cc2-c2ccncc2)c1` the growth at 10 µM (BT-549) was 96.8%, the growth at 10 µM (Malme-3M) was 104% and the growth at 10 µM (COLO 205 [1]) was 88.7%. It also gave a growth at 10 µM (M14) of 67.3%, a growth at 10 µM (HCT-116) of 35.2% and a growth at 10 µM (NCI-H322M) of 80.3%. It also gave a growth at 10 µM (SF-539 [2]) of 80%, a growth at 10 µM (CCRF-CEM) of 57.1% and a growth at 10 µM (LOX IMVI) of 76.1%. The growth at 10 µM (NCI-H23) was 72.1%, the growth at 10 µM (MDA-MB-231 [3]) was 56.7% and the growth at 10 µM (MDA-MB-468) was 46.5%. For the same molecule, the growth at 10 µM (SK-MEL-5) was 67.3%, the growth at 10 µM (HCT-15) was 58.6% and the growth at 10 µM (KM12) was 55.5%. For the same molecule, the growth at 10 µM (UO-31) was 54.3%, the growth at 10 µM (NCI-H460) was 41% and the growth at 10 µM (PC-3) was 35.6%. It also gave a growth at 10 µM (K562) of 38%, a growth at 10 µM (SK-MEL-28) of 78.8% and a growth at 10 µM (HOP-62) of 103%.
`COc1cc(Cl)cc(-c2nn(-c3cccc(NC(=O)c4ccc(Cl)c(Cl)c4)c3)cc2-c2ccncc2)c1` showed a growth at 10 µM (BT-549) of 85.2%, a growth at 10 µM (Malme-3M) of 96.4% and a growth at 10 µM (COLO 205 [1]) of 81.5%. For the same molecule, the growth at 10 µM (M14) was 68.9%, the growth at 10 µM (HCT-116) was 44.1% and the growth at 10 µM (NCI-H322M) was 84.5%. For the same molecule, the growth at 10 µM (SF-539 [2]) was 74.5%, the growth at 10 µM (CCRF-CEM) was 59.2% and the growth at 10 µM (LOX IMVI) was 72.8%. For the same molecule, the growth at 10 µM (NCI-H23) was 75.2%, the growth at 10 µM (MDA-MB-231 [3]) was 33.9% and the growth at 10 µM (MDA-MB-468) was 54.6%. The growth at 10 µM (SK-MEL-5) was 78.5%, the growth at 10 µM (HCT-15) was 57.9% and the growth at 10 µM (KM12) was 62.3%. It also gave a growth at 10 µM (UO-31) of 43.5%, a growth at 10 µM (NCI-H460) of 65.2% and a growth at 10 µM (PC-3) of 34%. The growth at 10 µM (K562) was 46.4%, the growth at 10 µM (SK-MEL-28) was 87.8% and the growth at 10 µM (HOP-62) was 105%.
